Where “and” joins values, the source holds several entries; their conditions need not be identical. Identical values can stand only once.
Columns and labels:
GhRbohD = tested on: GhRbohD; parameters: species or system Gossypium hirsutum cv. Lvmian; details: in vivo
GhMPK6 = tested on: GhMPK6; parameters: species or system Gossypium hirsutum cv. Lvmian; details: in vivo

Compound: O=C(NO)c1ccccc1 [Compound 1, benzohydroxamic acid]
- GhRbohD expression in cotton roots (Fig. 3f) Mean (GhRbohD): 6.888 and 6.864 and 7.067 and 8.206
- GhMPK6 expression in cotton roots (Fig. 3e) Mean (GhMPK6): 2.326 and 2.211 and 2.747 and 2.402

Source: publication PMC10310857 (Nature Communications, 2023)
